According to ChEMBL document CHEMBL4804286, “3-amino-4-(4-(4 (dimethylcarbamoyl) phenyl)-1,4-diazepan-1-yl) thieno [2,3-b] pyridine-2-carboxamide for use in cancer therapy and formulations comprising the same” (2020):
Active and inactive are the calls of the source. The rule behind the calls is not given here.

Legend:
[1] = target: Cyclin-dependent kinase 8/19 (Homo sapiens, UniProt P49336+Q9BWU1); settings: ST-2
Description: Inhibition of CDK8/CDK19 in ST2 cells by alkaline phosphatase activity assay

[2] = tested on: Myc-CaP; experiment: Inhibition of colony formation in murine castration-resistant Myc-CaP cells at 1 uM in presence of 5 uM enzalutamide by clonogenic assay relative to control; type: functional; settings: Mus musculus
[3] = tested on: Myc-CaP; experiment: Antiproliferative activity against murine castration-resistant Myc-CaP cells at 1 uM assessed as growth inhibition relative to control; type: functional; settings: Mus musculus
[4] = tested on: Myc-CaP; experiment: Antiproliferative activity against murine castration-resistant Myc-CaP cells at 1 uM assessed as growth inhibition in presence of 5 uM enzalutamide relative to control; type: functional; settings: Mus musculus
[5] = tested on: CWR22R; experiment: Antitumor activity against human 22Rv1 cells expressing AR-V7 xenografted in male nude mouse assessed as suppression of tumor growth at 66 mg/kg, administered twice a day for 20 days; type: functional, organism-based
[6] = tested on: CWR22R; experiment: Antitumor activity against human 22Rv1 cells expressing AR-V7 xenografted in male nude mouse assessed as suppression of tumor growth at 133 mg/kg, administered once a day for 20 days; type: functional, organism-based
[7] = tested on: Myc-CaP; experiment: Inhibition of colony formation in murine castration-resistant Myc-CaP cells at 1 uM by clonogenic assay; type: functional; settings: Mus musculus
[8] = tested on: 4T1; experiment: Antitumor activity against murine 4T1 cells xenografted in mouse assessed as suppression of tumor volume at 50 mg/kg, po; type: functional, organism-based

Cyclin-dependent kinase 8/19, sequence (P49336 whole entry, looked up): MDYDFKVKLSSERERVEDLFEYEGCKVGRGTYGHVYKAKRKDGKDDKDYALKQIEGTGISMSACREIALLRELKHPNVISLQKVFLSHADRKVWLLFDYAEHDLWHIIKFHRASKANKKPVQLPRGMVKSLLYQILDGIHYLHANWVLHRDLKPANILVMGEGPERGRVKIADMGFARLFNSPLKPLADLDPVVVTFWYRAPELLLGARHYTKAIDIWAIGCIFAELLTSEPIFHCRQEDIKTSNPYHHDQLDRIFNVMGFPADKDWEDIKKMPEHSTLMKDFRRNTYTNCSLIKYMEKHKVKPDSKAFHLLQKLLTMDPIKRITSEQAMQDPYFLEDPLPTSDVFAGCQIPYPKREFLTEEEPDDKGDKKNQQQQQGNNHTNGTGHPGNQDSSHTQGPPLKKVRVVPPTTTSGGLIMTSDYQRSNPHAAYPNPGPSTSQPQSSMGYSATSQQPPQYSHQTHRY
Cyclin-dependent kinase 8/19, sequence (Q9BWU1 whole entry, looked up): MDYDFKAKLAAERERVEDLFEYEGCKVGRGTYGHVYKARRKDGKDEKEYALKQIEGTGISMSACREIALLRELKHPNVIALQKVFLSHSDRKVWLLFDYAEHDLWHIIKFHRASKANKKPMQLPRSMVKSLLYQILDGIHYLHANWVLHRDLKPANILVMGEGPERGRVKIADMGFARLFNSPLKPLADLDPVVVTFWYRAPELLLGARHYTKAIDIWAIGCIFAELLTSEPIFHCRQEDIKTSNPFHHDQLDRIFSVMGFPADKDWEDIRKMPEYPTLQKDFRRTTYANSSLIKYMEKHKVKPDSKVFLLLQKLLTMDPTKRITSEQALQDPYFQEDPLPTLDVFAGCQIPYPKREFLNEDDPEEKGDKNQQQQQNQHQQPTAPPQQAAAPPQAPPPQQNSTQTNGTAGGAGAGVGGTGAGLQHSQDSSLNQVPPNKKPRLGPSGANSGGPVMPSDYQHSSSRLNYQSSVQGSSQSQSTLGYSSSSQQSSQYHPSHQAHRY

Compound: CN(C)C(=O)Cc1ccc(N2CCCN(c3ccnc4sc(C(N)=O)c(N)c34)CC2)cc1
- EC200 [1]: 6.6 nM

Compound: CNC(=O)c1ccc(N2CCCN(c3ccnc4sc(C(N)=O)c(N)c34)CC2)cc1
- EC200 [1]: 54.2 nM

Compound: COc1ccc(N2CCCN(c3ccnc4sc(C(N)=O)c(N)c34)CC2)cc1
- EC200 [1]: 115 nM

Compound: CN1CCN(C(=O)c2ccc3cc(CCNc4ncnc5ccc(C#N)cc45)ccc3c2)CC1 [SENEXIN B]
- inhibition [2]: Active
- Activity [3]: Active
- Activity [4]: Active
- Activity [5]: Active
- Activity [6]: Active
- inhibition [7]: Active
- Activity [8]: Active

Compound: Cc1ccc(N2CCCN(c3ccnc4sc(C(N)=O)c(N)c34)CC2)cc1
- EC200 [1]: 88.1 nM
